Measured values from article PMC5467912, “Asymmetric regulation of quorum-sensing receptors drives autoinducer-specific gene expression programs in Vibrio cholerae” (PLoS Genetics, 2017).
Where “and” joins values, the source holds several entries; their conditions need not be identical. Equal values may be shown once.

Tested on: CqsS-mKATE2
Assay: Qrr4 regulation of CqsS-mKATE2 translational fusion, anhydrous tetracycline-inducible qrr4 (S4 Fig)
Format: cell-based, E. coli
From the text: We examined whether Qrr regulation of CqsS is direct or indirect using a CqsS-mKATE2 translational fusion in E. coli expressing inducible qrr4. We reasoned that, if CqsS production is controlled by Qrr4, repression of CqsS-mKATE2 should occur when Qrr4 is induced. We verified that our system works by showing that inducible Qrr4 is capable of repressing a previously-identified direct target, VCA0107-GFP [24]. However, no repression of CqsS-mKATE2 occurred following induction of Qrr4 (S4 Fig).
To assay qrr4 regulation of cqsS, the relative fluorescence of translational fusions (VCA0107B-GFP and CqsS-mKATE2) was measured in E. coli BWR1. E. coli carrying one of these plasmids also contained either an empty plasmid (pZA31) or pZA31 carrying anhydrous tetracycline-inducible qrr4. Qrr4-mediated repression of CqsS-mKATE2 was assessed. VCA0107-GFP is a known Qrr4-repressed target and was used as a positive control to show the system was functional. Overnight cultures were diluted 1:50 into fresh medium and aliquotted in triplicate into 96 well plates. […] OD600 and fluorescence were assessed using an Envision 2103 Multilabel Reader (Perkin Elmer).
Supplementary file pgen.1006826.s008.tiff: S4 Fig Qrr4 indirectly regulates cqsS. Fluorescence from plasmid-encoded VCA0107-GFP (circles) and CqsS-mKATE2 (squares) was measured in E. coli. Either an empty vector (pZA31-lucNB, black) or pZA31-lucNB carrying tetracycline-inducible qrr4 (pYS245, red) was present in each strain. VCA0107 encodes a type VI secretion system component that is regulated by Qrr4. Data represent two experiments conducted in triplicate. Error bars represent standard errors of the mean. (TIFF) Click here for additional data file.

SMILES: Cc1c2c(c(O)c3c(O)cccc13)C(=O)[C@]1(O)C(=O)C(C(N)=O)=C(O)[C@@H](N(C)C)[C@@H]1C2 [aTc]
- Relative reporter signal, experimental averages (pCqsS Qrr4, aTc 0.0976562 ng/ml (normalization point)): 1
- Relative reporter signal, experimental averages (pCqsS Qrr4, aTc 0.195312 ng/ml, normalized to 0.0976562 ng/ml): 0.9161 and 1.022 and 1.111
- Relative reporter signal, experimental averages (pCqsS Qrr4, aTc 0.390625 ng/ml, normalized to 0.0976562 ng/ml): 0.9447 and 1.099 and 1.082
- Relative reporter signal, experimental averages (pCqsS Qrr4, aTc 0.78125 ng/ml, normalized to 0.0976562 ng/ml): 0.9451 and 1.129 and 1.056
- Relative reporter signal, experimental averages (pCqsS Qrr4, aTc 1.5625 ng/ml, normalized to 0.0976562 ng/ml): 1.068 and 1.16 and 0.9801
- Relative reporter signal, single replicates (pCqsS Qrr4, aTc 3.125 ng/ml): 1.44 and 0.9097 and 1.127 and 0.956
- Relative reporter signal, experimental averages (pCqsS Qrr4, aTc 3.125 ng/ml, normalized to 0.0976562 ng/ml): 1.078 and 1.159 and 0.9843
- Relative reporter signal, single replicates (pCqsS Qrr4, aTc 6.25 ng/ml): 1.264 and 1.158 and 1.22 and 0.881 and 1.097 and 1.0668 and 1.093 and 0.9121 and 1.019
- Relative reporter signal, experimental averages (pCqsS Qrr4, aTc 6.25 ng/ml, normalized to 0.0976562 ng/ml): 1.008 and 1.214 and 1.015
- Relative reporter signal, single replicates (pCqsS Qrr4, aTc 12.5 ng/ml): 1.4702 and 1.295 and 1.361 and 0.8302 and 0.9914 and 0.8969 and 1.079 and 1.208 and 0.9918
- Relative reporter signal, experimental averages (pCqsS Qrr4, aTc 12.5 ng/ml, normalized to 0.0976562 ng/ml): 1.093 and 1.376 and 0.9062
- Relative reporter signal, single replicates (pCqsS Qrr4, aTc 25 ng/ml): 1.547 and 1.293 and 1.267 and 0.9302 and 0.911 and 0.8369 and 1.15 and 1.125 and 1.107
- Relative reporter signal, experimental averages (pCqsS Qrr4, aTc 25 ng/ml, normalized to 0.0976562 ng/ml): 1.127 and 1.369 and 0.8927
- Relative reporter signal, single replicates (pCqsS Qrr4, aTc 50 ng/ml): 1.539 and 1.282 and 1.3008 and 0.9601 and 0.9046 and 0.8156 and 1.287 and 1.24 and 0.9722
- Relative reporter signal, experimental averages (pCqsS Qrr4, aTc 50 ng/ml, normalized to 0.0976562 ng/ml): 1.167 and 1.374 and 0.8934
- Relative reporter signal, single replicates (pCqsS Qrr4, aTc 100 ng/ml): 1.525 and 1.187 and 1.2288 and 1.039 and 0.9388 and 0.8346 and 1.105 and 1.41 and 1.043
- Relative reporter signal, experimental averages (pCqsS Qrr4, aTc 100 ng/ml, normalized to 0.0976562 ng/ml): 1.186 and 1.313 and 0.9374
- Relative reporter signal, single replicates (pCqsS Qrr4, aTc 200 ng/ml): 1.816 and 1.134 and 1.357 and 1.246 and 1.145 and 0.8992 and 1.196 and 1.432 and 1.656
- Relative reporter signal, experimental averages (pCqsS Qrr4, aTc 200 ng/ml, normalized to 0.0976562 ng/ml): 1.428 and 1.436 and 1.096
- Relative reporter signal, experimental averages (pCqsS vector, aTc 0.0976562 ng/ml (normalization point)): 1
- Relative reporter signal, experimental averages (pCqsS vector, aTc 0.195312 ng/ml, normalized to 0.0976562 ng/ml): 1.035 and 0.9136
- Relative reporter signal, experimental averages (pCqsS vector, aTc 0.390625 ng/ml, normalized to 0.0976562 ng/ml): 1.0872 and 0.9606
- Relative reporter signal, experimental averages (pCqsS vector, aTc 0.78125 ng/ml, normalized to 0.0976562 ng/ml): 0.9727 and 0.9156
- Relative reporter signal, experimental averages (pCqsS vector, aTc 1.5625 ng/ml, normalized to 0.0976562 ng/ml): 1.033 and 0.9687
- Relative reporter signal, single replicates (pCqsS vector, aTc 3.125 ng/ml): 1.095 and 1.006 and 1.033 and 1.049 and 1.037 and 0.9455
- Relative reporter signal, experimental averages (pCqsS vector, aTc 3.125 ng/ml, normalized to 0.0976562 ng/ml): 1.045 and 1.01
- Relative reporter signal, single replicates (pCqsS vector, aTc 6.25 ng/ml): 1.025 and 0.9971 and 1.015 and 1.078 and 0.9309 and 0.9316
- Relative reporter signal, experimental averages (pCqsS vector, aTc 6.25 ng/ml, normalized to 0.0976562 ng/ml): 1.0121 and 0.9801
- Relative reporter signal, single replicates (pCqsS vector, aTc 12.5 ng/ml): 1 and 0.9215 and 1.059 and 1.011 and 1.014 and 0.8976
- Relative reporter signal, experimental averages (pCqsS vector, aTc 12.5 ng/ml, normalized to 0.0976562 ng/ml): 0.9936 and 0.9741
- Relative reporter signal, single replicates (pCqsS vector, aTc 25 ng/ml): 0.9696 and 0.9738 and 0.9202 and 1.059 and 1.016 and 0.9126
- Relative reporter signal, experimental averages (pCqsS vector, aTc 25 ng/ml, normalized to 0.0976562 ng/ml): 0.9545 and 0.9958
- Relative reporter signal, single replicates (pCqsS vector, aTc 50 ng/ml): 0.9232 and 0.9361 and 1.0359 and 1.102 and 1.073 and 0.9182
- Relative reporter signal, experimental averages (pCqsS vector, aTc 50 ng/ml, normalized to 0.0976562 ng/ml): 0.965 and 1.031
- Relative reporter signal, single replicates (pCqsS vector, aTc 100 ng/ml): 0.9506 and 0.9792 and 0.9909 and 1.135 and 1.123 and 0.9303
- Relative reporter signal, experimental averages (pCqsS vector, aTc 100 ng/ml, normalized to 0.0976562 ng/ml): 0.9736 and 1.063
- Relative reporter signal, single replicates (pCqsS vector, aTc 200 ng/ml): 1.017 and 1.029 and 1.01 and 1.335 and 1.085 and 1.09
- Relative reporter signal, experimental averages (pCqsS vector, aTc 200 ng/ml, normalized to 0.0976562 ng/ml): 1.019 and 1.17
